Results from PubChem BioAssay (NCI).
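Values below derive from 48-hour exposures of cells grown in 96-well plates, with endpoints linearly interpolated between the two concentrations bracketing the appropriate inhibition level. Here, GI50 denotes the concentration required for 50% inhibition of growth. TGI: concentration producing complete growth inhibition.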

What was measured:
Assay in all cases: NCI anticancer screen, dose series, 48 h
[1] = system: DU-145 prostate
[2] = system: SNB-75 CNS
[3] = system: K-562 leukemia
[4] = system: SW-620 colon
[5] = system: OVCAR-8 ovarian
[6] = system: A549 NSCLC
[7] = system: HL-60(TB) leukemia
[8] = system: SK-OV-3 ovarian
[9] = system: NCI-H460 lung
[10] = system: UO-31 renal
[11] = system: MDA-MB-435

Compound	TGI [1] [µM]	TGI [2] [µM]	TGI [3] [µM]	TGI [4] [µM]	TGI [5] [µM]	TGI [6] [µM]	TGI [7] [µM]	TGI [8] [µM]	TGI [9] [µM]	TGI [10] [µM]	TGI [11] [µM]	GI50 [1] [µM]	GI50 [2] [µM]	GI50 [3] [µM]	GI50 [4] [µM]	GI50 [6] [µM]	GI50 [8] [µM]	GI50 [9] [µM]	GI50 [10] [µM]	GI50 [11] [µM]
Cc1c(Cl)c(S(N)(=O)=O)cc(S(N)(=O)=O)c1NC(=O)c1ccc(Cl)cc1	> 100	> 100	> 100	> 100	> 100	> 100	> 100	> 100	> 100	> 100	> 100	–	–	–	–	–	–	–	–	–
CC1(C)[C@@H]2C[C@H]1C(Cc1ccccc1C[C@H]1c3cc(-c4ccccn4)ncc3[C@H]3C[C@@H]1C3(C)C)c1cc(-c3ccccn3)ncc12 (stereo partly specified)	> 37.9	> 100	> 100	> 100	> 25.5	> 100	0.65	> 100	> 31.9	2.41	> 42.2	–	–	–	–	–	–	–	–	–
C/C=C1/CN2CC[C@@H]3c4ccccc4N4[C@H](C(=O)OC)[C@H]1C[C@H]2[C@]34/C=C/C1=COC[C@@H]2[C@H]1C[C@H]1c3c(c4ccccc4n3C)C[C@@H]2N1C	11.9	–	25	7.6	8.04	8.28	–	8.06	7.41	7.98	7.18	–	–	–	–	–	–	–	–	–
Nc1nc(SCCC/C=C/B(O)O)nc2c1ncn2C1OC(CO)C(O)C1O (stereo unspecified)	–	> 243	> 243	> 243	> 243	> 243	> 243	> 243	> 243	–	–	–	–	–	–	–	–	–	–	–
COc1cc2c(cc1OC)C(C1(O)CCCCC1)NCC2 (stereo unspecified)	–	> 100	> 100	> 100	> 100	–	> 100	> 100	> 100	> 100	–	–	–	–	–	–	–	–	–	–
O=[N+]([O-])/C=C/c1cccc(F)c1	21.6	28.1	–	8.88	32	> 100	–	28.2	30.4	5.87	13.2	–	–	–	–	–	–	–	–	–
Nc1nc(Cl)cc(NCCCCO)n1	–	> 100	> 100	> 100	> 100	> 100	> 100	> 100	> 100	> 100	–	–	–	–	–	–	–	–	–	–
CC(=O)O[C@H]1CC[C@]2(C)[C@H]3C(=O)C=C4[C@@H]5C[C@](C)(C(=O)N6CCCNCC6)CC[C@]5(C)CC[C@@]4(C)[C@]3(C)CC[C@H]2C1(C)C	3.15	2.64	4.27	3.22	–	4.67	–	3.48	3.11	2.82	2.97	1.71	1.34	1.27	1.67	1.82	1.87	1.58	1.4	1.59
C#CCCCCC#CC1CCCC1C1=CC(=O)c2ccccc21 (stereo unspecified)	–	17.7	8.14	6.39	3.52	30	3.93	28.7	32.5	21.3	–	–	–	–	–	–	–	–	–	–
O=C(N/N=C/c1cc(Br)cc(Br)c1[O-])c1ccccc1O.O=C(N/N=C/c1cc(Br)cc(Br)c1[O-])c1ccccc1O.[Cl-].[Fe+3]	–	–	5.63	14	33.4	36.8	6.54	7.22	17.7	20.7	–	–	–	2.59	–	–	–	–	–	–
CN[C@@H]1[C@H](O)[C@H](NC)[C@H]2O[C@@]3(O)C(=O)C[C@@H](C)O[C@H]3O[C@@H]2[C@H]1O	> 100	> 100	> 100	> 100	> 100	–	> 100	> 100	> 100	> 100	> 100	–	–	–	–	–	–	–	–	–
